Source: PMC9743148 (Annals of oncology : official journal of the European …, 2020)
“Also recorded” adds a separate entry of the source. Read-outs that look alike come from different tables or passages of the source.

Experiments:
[1] = Dose-proportionality power regression of PK parameters; assay type: in vivo, human; conditions: 8–200-mg dose range t.i.w.
[2] = test system: patients with advanced solid tumors; assay: Dose-limiting toxicity, MTD and RP2D determination; assay type: in vivo, human
clinical = conditions: human, plasma, oral; for AUC(0-inf): AUC0–inf; for AUC(0-t): AUC0–last
[3] = for T1/2 / Tmax: 20 mg q.d.
[4] = 4 mg, 4 mg q.d., cycle 1 Day 1, mean
[5] = 4 mg, 4 mg q.d., cycle 1 Day 21, mean
[6] = 8 mg, 8 mg q.d., cycle 1 Day 1, mean
[7] = 8 mg, 8 mg t.i.w., cycle 1 Day 1, mean
[8] = 8 mg, 8 mg q.d., cycle 1 Day 21, mean
[9] = 8 mg, 8 mg t.i.w., cycle 1 Last Wednesday, mean
[10] = 16 mg, 16 mg q.d., cycle 1 Day 1, mean
[11] = 16 mg, 16 mg t.i.w., cycle 1 Day 1, mean
[12] = 16 mg, 16 mg q.d., cycle 1 Day 21, mean
[13] = 20 mg, 20 mg q.d., cycle 1 Day 1, mean
[14] = 20 mg, 20 mg q.d., cycle 1 Day 21, mean
[15] = 24 mg, 24 mg q.d., cycle 1 Day 1, mean
[16] = 24 mg, 24 mg t.i.w., cycle 1 Day 1, mean
[17] = 24 mg, 24 mg q.d., cycle 1 Day 21, mean
[18] = 36 mg, 36 mg t.i.w., cycle 1 Day 1, mean
[19] = 56 mg, 56 mg t.i.w., cycle 1 Day 1, mean
[20] = 80 mg, 80 mg t.i.w., cycle 1 Day 1, mean
[21] = 120 mg, 120 mg t.i.w., cycle 1 Day 1, mean
[22] = 160 mg, 160 mg t.i.w., cycle 1 Day 1, mean

SMILES: C=CC(=O)N1CC[C@H](n2nc(C#Cc3cc(OC)cc(OC)c3)c3c(N)ncnc32)C1 [futibatinib]
- Dose proportionality of Cmax [1]: less than a dose-proportional manner
- Dose-limiting toxicities ([2]; 4, 8, 16, or 20 mg q.d.): No DLTs were observed
- Recommended phase II dose (RP2D) ([2]; human, in vivo, oral, 21 days): 20 mg q.d.
- Dose-limiting toxicities ([2]; other t.i.w. cohorts including 200 mg): no DLTs were reported
- Maximum tolerated dose (MTD) ([2]; q.d. schedule): 20 mg q.d.
- Maximum tolerated dose (MTD) ([2]; t.i.w. schedule, up to 200 mg): no MTD was defined; also recorded: not defined
- AUC(0-inf) (clinical; [4]): 117 ng·h/mL
- AUC(0-t) (clinical; [4]): 114 ng·h/mL
- AUC(0-t) (clinical; [5]): 134 ng·h/mL
- Cmax (clinical; [4]): 33.1 ng/mL
- Cmax (clinical; [5]): 52.5 ng/mL
- half-life (clinical; 4 mg, T1/2, 4 mg q.d., cycle 1 Day 1, mean): 105 min
- half-life (clinical; 4 mg, T1/2, 4 mg q.d., cycle 1 Day 21, mean): 97.8 min
- Tmax (clinical; 4 mg, 4 mg q.d., cycle 1 Day 1, median): 0.96 h
- Tmax (clinical; 4 mg, 4 mg q.d., cycle 1 Day 21, median): 1.08 h
- AUC(0-inf) (clinical; [6]): 524 ng·h/mL
- AUC(0-inf) (clinical; [7]): 315 ng·h/mL
- AUC(0-t) (clinical; [6]): 666 ng·h/mL
- AUC(0-t) (clinical; [8]): 550 ng·h/mL
- AUC(0-t) (clinical; [7]): 304 ng·h/mL
- AUC(0-t) (clinical; [9]): 472 ng·h/mL
- Cmax (clinical; [6]): 169 ng/mL
- Cmax (clinical; [8]): 98.2 ng/mL
- Cmax (clinical; [7]): 85.5 ng/mL
- Cmax (clinical; [9]): 106 ng/mL
- half-life (clinical; 8 mg, T1/2, 8 mg q.d., cycle 1 Day 1, mean): 136 min
- half-life (clinical; 8 mg, T1/2, 8 mg q.d., cycle 1 Day 21, mean): 165 min
- half-life (clinical; 8 mg, T1/2, 8 mg t.i.w., cycle 1 Day 1, mean): 125 min
- half-life (clinical; 8 mg, T1/2, 8 mg t.i.w., cycle 1 Last Wednesday, mean): 121 min
- Tmax (clinical; 8 mg, 8 mg q.d., cycle 1 Day 1, median): 2 h
- Tmax (clinical; 8 mg, 8 mg q.d., cycle 1 Day 21, median): 2 h
- Tmax (clinical; 8 mg, 8 mg t.i.w., cycle 1 Day 1, median): 1.04 h
- AUC(0-inf) (clinical; [10]): 549 ng·h/mL
- AUC(0-inf) (clinical; [11]): 744 ng·h/mL
- AUC(0-t) (clinical; [10]): 536 ng·h/mL
- AUC(0-t) (clinical; [12]): 737 ng·h/mL
- AUC(0-t) (clinical; [11]): 736 ng·h/mL
- Cmax (clinical; [10]): 148 ng/mL
- Cmax (clinical; [12]): 172 ng/mL
- Cmax (clinical; [11]): 207 ng/mL
- Cmax (clinical; 16 mg, 16 mg t.i.w., cycle 1 Last Wednesday, mean): 213 ng/mL
- half-life (clinical; 16 mg, T1/2, 16 mg q.d., cycle 1 Day 1, mean): 164 min
- half-life (clinical; 16 mg, T1/2, 16 mg q.d., cycle 1 Day 21, mean): 152 min
- half-life (clinical; 16 mg, T1/2, 16 mg t.i.w., cycle 1 Day 1, mean): 127 min
- half-life (clinical; 16 mg, T1/2, 16 mg t.i.w., cycle 1 Last Wednesday, mean): 165 min
- Tmax (clinical; 16 mg, 16 mg q.d., cycle 1 Day 1, median): 2 h
- Tmax (clinical; 16 mg, 16 mg q.d., cycle 1 Day 21, median): 2.07 h
- Tmax (clinical; 16 mg, 16 mg t.i.w., cycle 1 Day 1, median): 1 h
- Tmax (clinical; 16 mg, 16 mg t.i.w., cycle 1 Last Wednesday, median): 1 h
- AUC(0-inf) (clinical; [13]): 1300 ng·h/mL
- AUC(0-t) (clinical; [13]): 1190 ng·h/mL
- AUC(0-t) (clinical; [14]): 1180 ng·h/mL
- Cmax (clinical; [13]): 257 ng/mL
- Cmax (clinical; [14]): 171 ng/mL
- half-life (clinical; 20 mg, T1/2, 20 mg q.d., cycle 1 Day 1, mean): ~180 min
- half-life (clinical; 20 mg, T1/2, 20 mg q.d., cycle 1 Day 21, mean): ~180 min
- AUC(0-inf) (clinical; [15]): 1270 ng·h/mL
- AUC(0-inf) (clinical; [16]): 2200 ng·h/mL
- AUC(0-t) (clinical; [15]): 1220 ng·h/mL
- AUC(0-t) (clinical; [17]): 1420 ng·h/mL
- AUC(0-t) (clinical; [16]): 1790 ng·h/mL
- Cmax (clinical; [15]): 246 ng/mL
- Cmax (clinical; [17]): 194 ng/mL
- Cmax (clinical; [16]): 258 ng/mL
- Cmax (clinical; 24 mg, 24 mg t.i.w., cycle 1 Last Wednesday, mean): 361 ng/mL
- half-life (clinical; 24 mg, T1/2, 24 mg q.d., cycle 1 Day 1, mean): 188 min
- half-life (clinical; 24 mg, T1/2, 24 mg q.d., cycle 1 Day 21, mean): 187 min
- half-life (clinical; 24 mg, T1/2, 24 mg t.i.w., cycle 1 Day 1, mean): 211 min
- half-life (clinical; 24 mg, T1/2, 24 mg t.i.w., cycle 1 Last Wednesday, mean): 359 min
- Tmax (clinical; 24 mg, 24 mg q.d., cycle 1 Day 1, median): 1.98 h
- Tmax (clinical; 24 mg, 24 mg q.d., cycle 1 Day 21, median): 2 h
- Tmax (clinical; 24 mg, 24 mg t.i.w., cycle 1 Day 1, median): 3 h
- Tmax (clinical; 24 mg, 24 mg t.i.w., cycle 1 Last Wednesday, median): 1.05 h
- AUC(0-inf) (clinical; [18]): 2680 ng·h/mL
- AUC(0-t) (clinical; [18]): 2670 ng·h/mL
- Cmax (clinical; [18]): 556 ng/mL
- Cmax (clinical; 36 mg, 36 mg t.i.w., cycle 1 Last Wednesday, mean): 736 ng/mL
- half-life (clinical; 36 mg, T1/2, 36 mg t.i.w., cycle 1 Day 1, mean): 290 min
- half-life (clinical; 36 mg, T1/2, 36 mg t.i.w., cycle 1 Last Wednesday, mean): 394 min
- Tmax (clinical; 36 mg, 36 mg t.i.w., cycle 1 Day 1, median): 2 h
- Tmax (clinical; 36 mg, 36 mg t.i.w., cycle 1 Last Wednesday, median): 2.56 h
- AUC(0-inf) (clinical; [19]): 3300 ng·h/mL
- AUC(0-t) (clinical; [19]): 3290 ng·h/mL
- Cmax (clinical; [19]): 695 ng/mL
- Cmax (clinical; 56 mg, 56 mg t.i.w., cycle 1 Last Wednesday, mean): 930 ng/mL
- half-life (clinical; 56 mg, T1/2, 56 mg t.i.w., cycle 1 Day 1, mean): 358 min
- half-life (clinical; 56 mg, T1/2, 56 mg t.i.w., cycle 1 Last Wednesday, mean): 374 min
- Tmax (clinical; 56 mg, 56 mg t.i.w., cycle 1 Day 1, median): 3.08 h
- Tmax (clinical; 56 mg, 56 mg t.i.w., cycle 1 Last Wednesday, median): 2 h
- AUC(0-inf) (clinical; [20]): 9560 ng·h/mL
- AUC(0-t) (clinical; [20]): 7470 ng·h/mL
- Cmax (clinical; [20]): 964 ng/mL
- Cmax (clinical; 80 mg, 80 mg t.i.w., cycle 1 Last Wednesday, mean): 757 ng/mL
- half-life (clinical; 80 mg, T1/2, 80 mg t.i.w., cycle 1 Day 1, mean): 286 min
- half-life (clinical; 80 mg, T1/2, 80 mg t.i.w., cycle 1 Last Wednesday, mean): 317 min
- Tmax (clinical; 80 mg, 80 mg t.i.w., cycle 1 Last Wednesday, median): 3 h
- AUC(0-inf) (clinical; [21]): 5310 ng·h/mL
- AUC(0-t) (clinical; [21]): 6640 ng·h/mL
- Cmax (clinical; [21]): 713 ng/mL
- Cmax (clinical; 120 mg, 120 mg t.i.w., cycle 1 Last Wednesday, mean): 910 ng/mL
- half-life (clinical; 120 mg, T1/2, 120 mg t.i.w., cycle 1 Day 1, mean): 371 min
- half-life (clinical; 120 mg, T1/2, 120 mg t.i.w., cycle 1 Last Wednesday, mean): 637 min
- Tmax (clinical; 120 mg, 120 mg t.i.w., cycle 1 Day 1, median): 3.04 h
- Tmax (clinical; 120 mg, 120 mg t.i.w., cycle 1 Last Wednesday, median): 3.17 h
- AUC(0-t) (clinical; [22]): 7980 ng·h/mL
- Cmax (clinical; [22]): 819 ng/mL
- Cmax (clinical; 160 mg, 160 mg t.i.w., cycle 1 Last Wednesday, mean): 863 ng/mL
- half-life (clinical; 160 mg, T1/2, 160 mg t.i.w., cycle 1 Day 1, mean): 525 min
- half-life (clinical; 160 mg, T1/2, 160 mg t.i.w., cycle 1 Last Wednesday, mean): 239 min
- Tmax (clinical; 160 mg, 160 mg t.i.w., cycle 1 Day 1, median): 2.52 h
- Tmax (clinical; 160 mg, 160 mg t.i.w., cycle 1 Last Wednesday, median): 5.57 h
- Cmax (clinical; 200 mg, 200 mg t.i.w., cycle 1 Day 1, mean): 1290 ng/mL
- Cmax (clinical; 200 mg, 200 mg t.i.w., cycle 1 Last Wednesday, n 1): 845 ng/mL
- half-life (clinical; 200 mg, T1/2, 200 mg t.i.w., cycle 1 Day 1, mean): 573 min
- Tmax (clinical; 200 mg, 200 mg t.i.w., cycle 1 Day 1, median): 2 h
- T1/2 ([3]; cycle 1 Day 1, mean): 2.94 h
- Tmax ([3]; cycle 1 Day 1, median): 1.92 h
- T1/2 ([3]; cycle 1 Day 21, mean): 3.44 h
- Tmax ([3]; cycle 1 Day 21, median): 3.52 h
- Accumulation with repeated doses ([3]; both schedules): no significant accumulation
- Urinary excretion of futibatinib ([3]; urine): lower than 0.01 % of the dose
